From article PMC12097374 (Bioconjugate chemistry, 2017)

How the values were obtained:
[1] = test system: C6 rat glioma cells; test: Confocal cell imaging and displacement in live C6 rat glioma cells; type: cell-based; details: 0.1 μM probe 29, 100-fold higher concentration (10 μM) of competitor
[2] = target: TSPO (Rattus norvegicus, UniProt P16257); details: cited from earlier work

Row | SMILES | displacement of fluorescent probe 29 in C6 glioma cells [1] | fold enhancement in affinity compared with DPA-714 [2]
1 | CCC(C)N(C)C(=O)c1cc2ccccc2c(-c2ccccc2Cl)n1 (stereo not drawn) [PK 11195] | completely displaced | –
2 | CCc1cc(CC)n2nc(-c3ccc(OCCF)cc3)c(CC(=O)N(CC)CC)c2n1 [VUIIS 1008, 2-(5,7-diethyl-2-(4-(2-fluoroethoxy)phenyl)-pyrazolo[1,5-a]pyrimidin-3-yl)-N,N-diethylacetamide] | completely displaced | 36 fold
